Test results from patent US20170035914A1, “FUNCTIONALIZED PEPTIDE TRANSPORTERS FOR CELLULAR UPTAKE” (General Electric Company, priority 2015, published 2017).
Primed or numbered codes have the meaning given here. 5‑FAM = 5-FAM fluorescein label; Npys′ = not defined here

Assays:
live cells = experiment: Live-cell fluorescence microscopy of cell uptake and nuclear labeling, cell type not given (FIG. 4, 6, 7, 9); assay type: cell-based
From the text: (§1) A CPP-cargo construct (comprising a cell-penetrating moiety and a nuclear targeting moiety) was synthesized and conjugated via reactive 3-nitro-2-pyridinesulfenyl cysteine residues, and then purified by HPLC. When exogenously supplemented into cell staining media, these peptide fusions are designed to penetrate living cells and cleave into two subunits within the reducing environment of cell cytoplasm, thereby releasing a FITC-NLS peptide that is actively trafficked into the cell nucleus.

MRC5 cells = experiment: Live-cell fluorescence microscopy of cell uptake and nuclear labeling by CPP-NLS-FAM fusion peptides; assay type: cell-based, human
From the text: as §1, with “nucleus. Thus, the fusion peptide is convenient for discriminating nuclei by live-cell microscopy.” for “nucleus.”
(§2) Live human MRC5 cells and mammalian CHO cells were incubated with fusion proteins as depicted in the flow chart in FIG. 3, steps 1 through 9. […] The FITC-NLS/pVEC fusion was constructed by independently synthesizing a FITC-NLS-Npys peptide and a modified pVEC sequence containing a terminal cysteine residue: […]

CHO cells = experiment: as above; assay type: cell-based; details: mammalian CHO cells, compared with other tested cell-penetrating sequences, FIG. 4
From the text: as §1, with “nucleus. Thus, the fusion peptide is convenient for discriminating nuclei by live-cell microscopy.” for “nucleus.”
as §2

[1] = in the presence of excess monovalent pVEC (~132-156 μg/well), FIG. 7

Substance | effect of monovalent pVEC on cell uptake (live cells; higher amounts of monovalent pVEC (~132 μg/well), FIG. 9) | cell-uptake efficiency and nuclear labeling (MRC5 cells; live human MRC5 cells, compared with other tested cell-penetrating sequences, FIG. 4) | effect of monovalent pVEC on cellular uptake (MRC5 cells; monovalent pVEC ~44 μg/well, MRC5 cells, FIG. 8) | cell uptake and nuclear targeting (live cells; [1]) | reduction in fusion peptide needed for equal or better cell uptake and nuclear labeling (live cells; [1]) | delivery of the NLS-FAM cargo moiety into cells (live cells; various cell types, FIG. 4 legend) | cell-uptake efficiency and nuclear labeling (CHO cells)
5-FAM-GGPKKKRKVGGC(N-Pys)-OH ({5‑FAM}-GGPKKKRKVGGC(Npys′)-OH) [FITC-NLS-Npys] | enhanced cell uptake | – | – | – | – | – | –
5-FAM-GGPKKKRKVGGCCGGKSHAHAQKRIRRRLIILL (not fully specified; 5-FAM; disulfide-linked) [FAM-NLS-C-C-pVEC, disulfide-linked fusion of Fluorescein-NLS-Npys peptide and modified pVEC peptide] | – | highest | enhanced | enhanced | at least 8 fold | high efficiency | highest
